Experimental data published in ChEMBL document CHEMBL1124854, “Porphyrin dimers as photosensitizers in photodynamic therapy” (1990).

Experiments:
Assay type in all cases: functional
Mus musculus [1] = assay: In vivo photosensitizing activity against subcutaneously implanted SMT-F tumor in DBA/2 mice at the dose of 4.2mg/Kg, day 1-2
Mus musculus [2] = assay: In vivo photosensitizing activity against subcutaneously implanted SMT-F tumor in DBA/2 mice at the dose of 2.1mg/Kg, day 7
Mus musculus [3] = assay: In vivo photosensitizing activity against subcutaneously implanted SMT-F tumor in DBA/2 mice at the dose of 2.1mg/Kg, day 1-2

Compound	Tumor response (Mus musculus [1])	Tumor response (Mus musculus [2])	Tumor response (Mus musculus [3])
CNc1cc2[nH]c(cc3nc(cc4nc(ccc(CCC(=O)OC)c1C)C(CCC(=O)OC)=C4C)C(C)=C3C(C)O)c(C)c2C(C)OC(C)c1c(C)cc2[nH]c(cc3nc(cc4nc(cc(N)c1C)C(C(C)O)=C4C)C(C)=C3CCC(=O)OC)c(CCC(=O)OC)c2C (centres undefined)	0%	–	–
C=CC1=C(C)c2cc3nc(ccc(CCC(=O)OC)c(C)c(NC)cc4[nH]c(cc1n2)c(C)c4C(C)OC(C)c1c(C)cc2[nH]c(cc4nc(cc5nc(cc(N)c1C)C(C(C)O)=C5C)C(C)=C4CCC(=O)OC)c(CCC(=O)OC)c2C)C(CCC(=O)OC)=C3C (centres undefined)	–	100%	100%
CNc1cc2[nH]c(cc3nc(cc4nc(ccc(CCC(=O)OC)c1C)C(CCC(=O)OC)=C4C)C(C)=C3C(C)O)c(C)c2C(C)OC(=O)CCC1=C(C)c2cc(C)c(C(C)O)c(C)c(N)cc3nc(cc4[nH]c(cc1n2)c(CCC(=O)OC)c4C)C(C)=C3C(C)O (centres undefined)	0%	–	–
